Test results reported in patent US20230144186A1 (The Trustees of the University of Pennsylvania, priority 2020, published 2023).
Read-outs that look alike come from different tables or passages of the source.

Tests used:
airway inflammation = settings: murine model; cited from earlier work
[1] = system: SARS-CoV-2 (UPenn/Philadelphia strain); test: Human sinonasal ALI infection with SARS-CoV-2, nucleocapsid staining and quantitative fluorescence imaging; settings: 1 mg/mL quinine sulfate, 48 hrs; average of two measurements
[2] = system: human ciliated sinonasal air-liquid-interface (ALI) cells
[3] = system: human H1N1 influenza A strain PR8; assay type: cell-based; settings: 0.1% quinine in 0.9% sodium chloride from 1 h post infection, daily, 72 hrs
nitric oxide (NO) = test: NO production after nasal instillation in ferrets (nasal wash); assay type: in vivo, ferret

SMILES: C=C[C@H]1C[N@@]2CC[C@H]1C[C@H]2[C@H](O)c1ccnc2ccc(OC)cc12 [quinine]
- airway inflammation (BAL, histology, PFTs) (airway inflammation): reduce airway inflammation
- Quinine Rx (% infected) [1]: 2.32%
- cell viability [2]: remained viable and visually healthy
- transcripts for both the NP and IAV-M genes ([3]; subject A cells, MOI of 1): lesser relative reduction
- transcripts for both the NP and IAV-M genes ([3]; subject B (more mature) ALI culture): marked relative reduction
- NO in nasal wash (nitric oxide (NO); 5 min after 200 μL of 1 mg/mL solution intranasal): 6.64 ng/mL
- NO in nasal wash (nitric oxide (NO); 10 min after 200 μL of 1 mg/mL solution intranasal): 6.42 ng/mL
- NO in nasal wash (nitric oxide (NO); 15 min after 200 μL of 1 mg/mL solution intranasal): 6.52 ng/mL
